Measured values from publication PMC11594981 (International Journal of Molecular Sciences, 2024).

Target: T1, CYP3A4 (Homo sapiens, UniProt P08684)
T1 construct: recombinant CYP3A4 (BACULOSOMES Plus reagent)
Test: fluorogenic substrate turnover by recombinant CYP3A4 (Vivid kit)
Format: biochemical

T1 sequence (P08684 2-503): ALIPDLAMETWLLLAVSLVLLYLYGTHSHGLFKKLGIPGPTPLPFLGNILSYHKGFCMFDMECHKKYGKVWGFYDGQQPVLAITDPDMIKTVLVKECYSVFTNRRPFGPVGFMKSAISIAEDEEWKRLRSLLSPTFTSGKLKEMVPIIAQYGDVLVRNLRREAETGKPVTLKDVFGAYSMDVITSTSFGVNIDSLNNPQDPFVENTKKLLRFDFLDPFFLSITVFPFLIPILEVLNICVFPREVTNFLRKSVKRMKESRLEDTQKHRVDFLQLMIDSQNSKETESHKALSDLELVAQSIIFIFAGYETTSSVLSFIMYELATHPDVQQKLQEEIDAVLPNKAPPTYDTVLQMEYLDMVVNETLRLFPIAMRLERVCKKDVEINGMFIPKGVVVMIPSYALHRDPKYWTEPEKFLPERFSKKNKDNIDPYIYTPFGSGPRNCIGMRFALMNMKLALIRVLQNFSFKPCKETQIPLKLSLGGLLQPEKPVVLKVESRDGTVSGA

## N#Cc1cc2ccc(OCOCc3ccccc3)cc2oc1=O [BOMCC, 7-benzyloxymethoxy-3-cyano-coumarin]
  fluorogenic substrate turnover by recombinant CYP3A4 (Vivid kit): Inhibition of BOMC transformation by CYP3A4 in the presence of ivermectin
